Measured values reported in ChEMBL document CHEMBL5465560, “Selectivity Literature for EUbOPEN Chemogenomic Library” (2024).

Experiments:
[1] = target: T1, Interleukin-1 receptor-associated kinase 3 (Homo sapiens) (UniProt Q9Y616); settings: at 10 µM
T1 sequence (whole entry): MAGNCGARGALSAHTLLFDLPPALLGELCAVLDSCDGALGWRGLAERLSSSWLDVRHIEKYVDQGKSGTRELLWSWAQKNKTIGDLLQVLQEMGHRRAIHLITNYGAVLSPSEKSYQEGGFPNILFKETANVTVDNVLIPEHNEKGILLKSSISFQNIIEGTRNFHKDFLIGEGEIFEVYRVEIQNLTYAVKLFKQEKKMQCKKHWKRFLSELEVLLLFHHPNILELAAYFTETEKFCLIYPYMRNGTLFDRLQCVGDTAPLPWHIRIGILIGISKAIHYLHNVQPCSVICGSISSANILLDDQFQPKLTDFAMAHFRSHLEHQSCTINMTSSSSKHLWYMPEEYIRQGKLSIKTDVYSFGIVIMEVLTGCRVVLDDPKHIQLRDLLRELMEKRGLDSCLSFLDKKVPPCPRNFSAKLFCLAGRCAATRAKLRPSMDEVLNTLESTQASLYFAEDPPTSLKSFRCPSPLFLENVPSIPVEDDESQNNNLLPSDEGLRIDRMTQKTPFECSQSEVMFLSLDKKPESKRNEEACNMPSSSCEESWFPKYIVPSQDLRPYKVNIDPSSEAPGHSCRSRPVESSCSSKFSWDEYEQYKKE

[2] = target: T2, Serine/threonine-protein kinase 3 (Homo sapiens) (UniProt Q13188); settings: at 10 µM
T2 sequence (whole entry): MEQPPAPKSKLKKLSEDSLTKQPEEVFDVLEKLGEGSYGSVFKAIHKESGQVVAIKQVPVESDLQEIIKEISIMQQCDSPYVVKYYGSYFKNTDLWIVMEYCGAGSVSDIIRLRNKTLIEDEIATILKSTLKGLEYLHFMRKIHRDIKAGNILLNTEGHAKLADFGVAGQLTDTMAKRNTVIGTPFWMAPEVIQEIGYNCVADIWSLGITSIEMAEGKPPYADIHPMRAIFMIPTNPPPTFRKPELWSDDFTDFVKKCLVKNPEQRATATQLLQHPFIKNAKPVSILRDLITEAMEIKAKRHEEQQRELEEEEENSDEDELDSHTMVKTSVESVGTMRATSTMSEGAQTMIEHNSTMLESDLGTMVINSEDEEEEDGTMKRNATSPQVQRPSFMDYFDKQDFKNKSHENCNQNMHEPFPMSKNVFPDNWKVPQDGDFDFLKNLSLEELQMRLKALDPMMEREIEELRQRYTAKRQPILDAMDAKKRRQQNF

[3] = target: Glycogen synthase kinase-3 alpha (Homo sapiens, UniProt P49840); assay: Selectivity interaction (Millipore kinase profiler) EUB0000124b GSK3A; settings: at 10 µM
[4] = target: T3, Aurora kinase A (Homo sapiens) (UniProt O14965); assay: Selectivity interaction (ActivX KiNativ screen (kinase selectivity in THP-1 cell lysates)) EUB0000639a STK6; format: subcellular; settings: lysate, at 1 µM
T3 sequence (whole entry): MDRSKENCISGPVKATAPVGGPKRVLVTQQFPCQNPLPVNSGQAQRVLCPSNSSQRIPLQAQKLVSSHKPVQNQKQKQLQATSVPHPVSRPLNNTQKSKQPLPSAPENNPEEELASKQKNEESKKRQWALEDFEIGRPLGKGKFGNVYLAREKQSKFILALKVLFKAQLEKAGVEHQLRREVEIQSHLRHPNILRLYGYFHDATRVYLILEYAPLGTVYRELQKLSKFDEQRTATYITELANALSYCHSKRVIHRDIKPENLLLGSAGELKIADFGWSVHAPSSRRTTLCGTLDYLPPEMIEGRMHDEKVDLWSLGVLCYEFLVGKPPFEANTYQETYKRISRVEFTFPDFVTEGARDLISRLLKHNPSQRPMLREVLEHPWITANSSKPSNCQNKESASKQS

[5] = target: Casein kinase I isoform alpha (Homo sapiens, UniProt P48729); assay: Selectivity interaction (Kinase panel (literature)) EUB0001199aCl CSNK1A1; settings: at 1 µM
[6] = target: Mitogen-activated protein kinase 4 (Homo sapiens) (UniProt P31152); assay: Selectivity interaction (KinomeScan (DiscoverX)) EUB0000695a MAPK4; settings: at 100 nM
[7] = target: Serine/threonine-protein kinase tousled-like 2 (Homo sapiens) (UniProt Q86UE8); assay: Selectivity interaction (KinomeScan (DiscoverX)) EUB0000695a TLK2; settings: at 100 nM
[8] = target: BMP-2-inducible protein kinase (Homo sapiens) (UniProt Q9NSY1); settings: at 10 µM
[9] = target: Serine/threonine-protein kinase OSR1 (Homo sapiens) (UniProt O95747); assay: Selectivity interaction (KinomeScan (DiscoverX)) EUB0000092b OXSR1; settings: at 10 µM
[10] = target: RAC-beta serine/threonine-protein kinase (Homo sapiens) (UniProt P31751); assay: Selectivity interaction (Upstate Kinase Profiler service (Millipore)) EUB0000056c AKT2; settings: at 1 µM
[11] = target: Activin receptor type-1-like (Homo sapiens) (UniProt P37023); assay: Selectivity interaction (KinomeScan (DiscoverX)) EUB0000655a ACVRL1; settings: at 10 µM
[12] = target: Tyrosine-protein kinase Fyn (Homo sapiens) (UniProt P06241); assay: Selectivity interaction (ActivX KiNativ screen (ex vivo kinase selectivity in human PBMCs)) EUB0001619a FYN; format: cell-based; settings: PBMC, at 1 µM
[13] = target: T4, Mitogen-activated protein kinase 13 (Homo sapiens) (UniProt O15264); assay: Selectivity interaction (ActivX KiNativ screen (ex vivo kinase selectivity in human PBMCs)) EUB0001619a MAPK13; format: cell-based; settings: PBMC, at 1 µM
T4 sequence (whole entry): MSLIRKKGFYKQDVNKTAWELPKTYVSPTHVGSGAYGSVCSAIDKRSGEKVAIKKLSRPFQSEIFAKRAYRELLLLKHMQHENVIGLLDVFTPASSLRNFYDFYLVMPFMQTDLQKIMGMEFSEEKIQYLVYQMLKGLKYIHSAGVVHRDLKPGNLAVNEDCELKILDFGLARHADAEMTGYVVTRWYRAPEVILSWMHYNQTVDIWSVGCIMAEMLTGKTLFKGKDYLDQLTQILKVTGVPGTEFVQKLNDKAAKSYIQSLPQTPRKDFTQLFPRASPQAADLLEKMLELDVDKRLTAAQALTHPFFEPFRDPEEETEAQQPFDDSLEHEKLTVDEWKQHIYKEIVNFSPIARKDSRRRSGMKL

[14] = target: Mitogen-activated protein kinase 8 (Homo sapiens, UniProt P45983); assay: Selectivity interaction (KinomeScan (DiscoverX)) EUB0000607a MAPK8; settings: at 10 µM
Chain of Mitogen-activated protein kinase 8 (P45983 whole entry): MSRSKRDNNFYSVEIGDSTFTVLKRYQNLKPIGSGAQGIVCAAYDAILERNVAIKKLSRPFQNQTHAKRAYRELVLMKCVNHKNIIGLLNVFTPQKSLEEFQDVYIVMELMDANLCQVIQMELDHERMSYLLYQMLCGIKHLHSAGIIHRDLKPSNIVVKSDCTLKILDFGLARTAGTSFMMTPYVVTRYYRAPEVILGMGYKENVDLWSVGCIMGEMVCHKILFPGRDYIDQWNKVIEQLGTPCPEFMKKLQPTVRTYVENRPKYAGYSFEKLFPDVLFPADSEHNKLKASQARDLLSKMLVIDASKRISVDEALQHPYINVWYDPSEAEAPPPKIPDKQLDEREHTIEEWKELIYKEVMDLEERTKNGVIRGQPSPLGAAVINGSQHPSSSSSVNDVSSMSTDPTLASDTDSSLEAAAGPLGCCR

Chain of Activin receptor type-1-like (Homo sapiens) (P37023 whole entry): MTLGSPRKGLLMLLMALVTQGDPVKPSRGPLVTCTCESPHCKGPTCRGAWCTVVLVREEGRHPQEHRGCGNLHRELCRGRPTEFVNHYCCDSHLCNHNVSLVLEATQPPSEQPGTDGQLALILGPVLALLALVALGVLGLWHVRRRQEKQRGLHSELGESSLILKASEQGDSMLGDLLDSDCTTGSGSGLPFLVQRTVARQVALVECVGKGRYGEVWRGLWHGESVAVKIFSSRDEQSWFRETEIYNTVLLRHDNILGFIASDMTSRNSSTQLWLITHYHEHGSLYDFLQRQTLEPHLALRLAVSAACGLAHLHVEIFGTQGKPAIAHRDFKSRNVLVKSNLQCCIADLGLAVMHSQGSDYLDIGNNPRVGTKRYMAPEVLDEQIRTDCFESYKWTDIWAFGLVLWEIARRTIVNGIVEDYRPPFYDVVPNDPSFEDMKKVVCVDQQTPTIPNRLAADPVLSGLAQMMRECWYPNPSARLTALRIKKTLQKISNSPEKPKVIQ
Chain of Serine/threonine-protein kinase tousled-like 2 (Homo sapiens) (Q86UE8 whole entry, looked up): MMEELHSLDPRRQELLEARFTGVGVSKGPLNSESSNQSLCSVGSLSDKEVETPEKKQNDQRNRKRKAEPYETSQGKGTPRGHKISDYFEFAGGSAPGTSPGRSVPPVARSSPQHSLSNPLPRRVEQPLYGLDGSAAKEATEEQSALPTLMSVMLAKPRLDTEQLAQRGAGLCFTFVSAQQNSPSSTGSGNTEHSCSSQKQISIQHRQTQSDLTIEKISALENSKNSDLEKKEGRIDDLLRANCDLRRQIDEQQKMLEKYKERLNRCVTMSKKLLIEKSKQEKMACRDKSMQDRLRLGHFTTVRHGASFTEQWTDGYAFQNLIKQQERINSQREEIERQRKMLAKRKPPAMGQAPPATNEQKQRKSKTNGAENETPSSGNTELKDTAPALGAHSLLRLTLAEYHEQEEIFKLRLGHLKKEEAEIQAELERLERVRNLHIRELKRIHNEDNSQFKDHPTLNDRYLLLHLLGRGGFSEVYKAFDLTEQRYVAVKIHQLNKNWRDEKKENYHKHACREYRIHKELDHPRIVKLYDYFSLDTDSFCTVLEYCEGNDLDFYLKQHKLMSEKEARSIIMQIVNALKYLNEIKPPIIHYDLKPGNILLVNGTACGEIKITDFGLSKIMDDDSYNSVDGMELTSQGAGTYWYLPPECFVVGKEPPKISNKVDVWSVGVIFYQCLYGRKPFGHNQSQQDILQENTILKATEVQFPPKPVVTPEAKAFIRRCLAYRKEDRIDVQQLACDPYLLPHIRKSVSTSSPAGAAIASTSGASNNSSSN
Chain of Serine/threonine-protein kinase OSR1 (Homo sapiens) (O95747 2-527 limits assumed): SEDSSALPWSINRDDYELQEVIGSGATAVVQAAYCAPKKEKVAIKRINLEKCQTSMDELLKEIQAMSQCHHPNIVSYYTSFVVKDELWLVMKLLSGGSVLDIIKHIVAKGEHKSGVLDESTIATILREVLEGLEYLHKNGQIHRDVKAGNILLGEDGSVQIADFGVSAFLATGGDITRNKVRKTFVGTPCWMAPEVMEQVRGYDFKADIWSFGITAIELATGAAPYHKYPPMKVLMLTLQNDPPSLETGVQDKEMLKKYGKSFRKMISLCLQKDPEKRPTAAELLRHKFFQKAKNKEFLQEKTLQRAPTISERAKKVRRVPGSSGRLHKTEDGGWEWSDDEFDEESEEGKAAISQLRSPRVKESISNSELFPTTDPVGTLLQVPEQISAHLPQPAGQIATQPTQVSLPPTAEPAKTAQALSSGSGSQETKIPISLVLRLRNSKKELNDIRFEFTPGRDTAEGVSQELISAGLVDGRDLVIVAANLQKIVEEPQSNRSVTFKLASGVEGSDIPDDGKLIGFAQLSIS
Chain of BMP-2-inducible protein kinase (Homo sapiens) (Q9NSY1 whole entry, looked up): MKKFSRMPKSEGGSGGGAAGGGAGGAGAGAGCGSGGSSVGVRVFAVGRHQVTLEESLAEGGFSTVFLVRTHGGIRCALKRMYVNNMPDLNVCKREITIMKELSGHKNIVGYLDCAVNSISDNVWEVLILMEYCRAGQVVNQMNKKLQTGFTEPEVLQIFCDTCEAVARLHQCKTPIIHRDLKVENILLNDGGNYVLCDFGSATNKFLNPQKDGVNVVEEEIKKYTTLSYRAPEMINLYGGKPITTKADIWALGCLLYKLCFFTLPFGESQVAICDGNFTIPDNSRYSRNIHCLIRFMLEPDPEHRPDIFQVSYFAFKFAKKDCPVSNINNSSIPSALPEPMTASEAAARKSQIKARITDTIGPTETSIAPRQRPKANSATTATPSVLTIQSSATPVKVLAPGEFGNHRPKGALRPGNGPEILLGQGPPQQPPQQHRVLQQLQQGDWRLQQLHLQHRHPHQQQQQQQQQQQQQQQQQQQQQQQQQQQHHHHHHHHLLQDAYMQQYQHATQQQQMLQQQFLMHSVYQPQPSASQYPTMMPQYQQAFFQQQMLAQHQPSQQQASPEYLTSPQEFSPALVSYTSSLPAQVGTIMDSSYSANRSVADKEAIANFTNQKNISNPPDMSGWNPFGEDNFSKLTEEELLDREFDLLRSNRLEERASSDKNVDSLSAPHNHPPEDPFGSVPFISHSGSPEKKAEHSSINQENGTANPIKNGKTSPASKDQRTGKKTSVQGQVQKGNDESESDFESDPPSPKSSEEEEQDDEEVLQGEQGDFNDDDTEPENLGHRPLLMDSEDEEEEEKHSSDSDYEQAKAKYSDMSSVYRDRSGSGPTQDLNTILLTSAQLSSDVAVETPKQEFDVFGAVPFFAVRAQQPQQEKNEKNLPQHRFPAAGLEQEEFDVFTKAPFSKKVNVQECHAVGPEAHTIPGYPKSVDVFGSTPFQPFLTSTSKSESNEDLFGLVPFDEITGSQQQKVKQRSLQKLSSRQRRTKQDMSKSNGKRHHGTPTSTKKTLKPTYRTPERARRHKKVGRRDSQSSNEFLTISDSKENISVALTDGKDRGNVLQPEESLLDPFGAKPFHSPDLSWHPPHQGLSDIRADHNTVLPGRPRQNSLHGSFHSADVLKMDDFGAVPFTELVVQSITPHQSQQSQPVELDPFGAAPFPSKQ
Chain of Casein kinase I isoform alpha (P48729 2-337 limits assumed): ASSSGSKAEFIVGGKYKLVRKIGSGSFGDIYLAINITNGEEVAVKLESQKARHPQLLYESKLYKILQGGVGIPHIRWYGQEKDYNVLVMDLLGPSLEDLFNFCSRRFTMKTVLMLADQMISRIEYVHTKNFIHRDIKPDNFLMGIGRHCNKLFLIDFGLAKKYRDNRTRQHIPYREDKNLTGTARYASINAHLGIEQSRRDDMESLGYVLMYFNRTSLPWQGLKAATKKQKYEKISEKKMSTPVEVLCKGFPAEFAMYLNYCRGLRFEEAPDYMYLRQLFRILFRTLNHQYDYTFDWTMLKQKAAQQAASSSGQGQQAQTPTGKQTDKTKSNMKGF
Chain of Glycogen synthase kinase-3 alpha (P49840 2-483 limits assumed): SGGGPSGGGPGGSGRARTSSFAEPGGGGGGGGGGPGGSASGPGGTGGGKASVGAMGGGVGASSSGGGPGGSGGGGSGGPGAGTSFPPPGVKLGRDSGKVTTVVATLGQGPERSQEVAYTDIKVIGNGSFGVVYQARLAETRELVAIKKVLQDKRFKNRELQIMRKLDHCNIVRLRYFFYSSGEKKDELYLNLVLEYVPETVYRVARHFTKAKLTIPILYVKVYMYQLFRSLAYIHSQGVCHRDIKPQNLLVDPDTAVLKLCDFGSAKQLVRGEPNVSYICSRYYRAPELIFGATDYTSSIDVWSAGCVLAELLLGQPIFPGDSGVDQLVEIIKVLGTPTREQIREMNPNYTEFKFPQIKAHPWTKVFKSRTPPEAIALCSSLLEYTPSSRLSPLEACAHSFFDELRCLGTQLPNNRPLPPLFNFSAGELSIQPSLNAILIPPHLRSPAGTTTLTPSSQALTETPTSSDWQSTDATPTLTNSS
Chain of RAC-beta serine/threonine-protein kinase (Homo sapiens) (P31751 whole entry): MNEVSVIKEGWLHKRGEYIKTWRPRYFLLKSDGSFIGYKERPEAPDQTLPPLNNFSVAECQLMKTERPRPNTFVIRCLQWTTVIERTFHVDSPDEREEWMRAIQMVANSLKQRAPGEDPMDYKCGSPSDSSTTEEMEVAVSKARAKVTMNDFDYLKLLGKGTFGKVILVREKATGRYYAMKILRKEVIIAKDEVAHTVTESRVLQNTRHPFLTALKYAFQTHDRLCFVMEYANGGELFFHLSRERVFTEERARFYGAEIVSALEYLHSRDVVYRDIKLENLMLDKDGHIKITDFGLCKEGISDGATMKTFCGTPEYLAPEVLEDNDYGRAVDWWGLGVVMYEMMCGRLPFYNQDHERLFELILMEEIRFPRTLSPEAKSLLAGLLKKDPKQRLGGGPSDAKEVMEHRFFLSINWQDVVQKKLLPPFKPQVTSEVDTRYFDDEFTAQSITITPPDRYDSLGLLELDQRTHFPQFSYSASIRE

## Cc1cc([C@@H](C)Nc2ccccc2C(=O)O)c2nc(N3CCOCC3)cc(=O)n2c1 [AZD-6482]
[1]
  % of control: 58%
[2]
  % of control: 66%

## CC(=O)Nc1cccc(-n2c(=O)n(C3CC3)c(=O)c3c(Nc4ccc(I)cc4F)n(C)c(=O)c(C)c32)c1
[3]
  % of control: 99%

## CC[C@@H]1[C@H](F)C(=O)N[C@@H]1COc1nccc2cc(C(N)=O)c(OC)cc12 [ZIMLOVISERTIB]
[4]
  % of inhibition: 9.2%

## CN1Cc2nccc(-c3cn(C)nc3-c3ccc(F)cc3)c2C1=O
[5]
  % of inhibition: 51%

## Cc1cc(F)c(C(=O)Nc2cccc(-c3nncn3C(C)C)n2)cc1-n1cnc(C2CC2)c1
[6]
  % of control: 100%
[7]
  % of control: 100%

## CCN(CC)CCCCNc1ncc2cc(-c3cc(OC)cc(OC)c3)c(NC(=O)NC(C)(C)C)nc2n1
[8]
  % of control: 100%

## CCC(=O)N1CCN(c2ccc(-n3c(=O)ccc4cnc5ccc(-c6cnc7ccccc7c6)cc5c43)cc2C(F)(F)F)CC1
[9]
  % of control: 100%

## Cc1ccc(-c2ccc3c(ccc4sc5c(c43)NC[C@@H](C)NC5=O)n2)cn1
[10]
  % of inhibition: -9%

## CN(C)CCOc1ccc(-c2nc(-c3ccncc3)c(-c3ccc4c(c3)CC/C4=N\O)[nH]2)cc1
[11]
  % of control: 67%

## N#Cc1cccc(-c2c[nH]c3ncnc(N4CCOCC4)c23)c1
[12]
  % of inhibition: -9%
[13]
  % of inhibition: -6%

## CNC(=O)Nc1ccc(-c2nc(N3CC4CCC(C3)O4)c3cnn(C4CCC5(CC4)OCCO5)c3n2)cc1
[14]
  % of control: 91%
